Read-outs that look alike come from different tables or passages of the source.
Assays:
[1] = Pharmacokinetics of ketamine and its metabolite hydroxynorketamine in mouse serum, hippocampus and frontal cortex (noncompartmental analysis, LC-MS/MS); assay type: in vivo, C57BL/6J mice; details: for AUC0-∞ / t0.5λz / tmax / Cmax / MRT / k el / CL/F / Vd/F: ketamine 10 mg/kg i.p.; for Kp / Cmax / MRT / k el / CL/F / Vd/F: male, C57BL/6J, mouse, 10 mg/kg; for Kp: intraperitoneal; for Cmax / MRT / k el / CL/F / Vd/F: ip; for Cmax: read-out: Cmax; for MRT: read-out: MRT (converted); for k el: read-out: λz (converted); for Vd/F: read-out: Vz/F
[2] = test system: mice subjected to CRS and CRS + ZnD; test: Sucrose preference test (SPT) in mice subjected to CRS or CRS + ZnD; assay type: in vivo, C57BL/6J mice; details: three doses (ketamine 10 mg/kg, Ro 10 mg/kg, Hyp 2.5 mg/kg + Lan 10 mg/kg), 24 h after the last treatment
Procedure: (§1) All the compounds/drugs used in the study were obtained commercially, except for hyperforin (sodium salt), which was received as a gift from Dr. Wilmar Schwabe GmbH and Co (Karlsruhe, Germany). […] The control group received only 0.9% NaCl.
(§2) One week after acclimation, the mice were subjected to either a zinc-adequate feed (ZnA, 50 mg/kg) or zinc-deficient/low-Zn feed (ZnD, 3 mg/kg). Beginning from the second week, some ZnD mice were additionally subjected to 3 weeks of CRS. At the beginning of the 5th week, the mice were subjected to their appropriate treatment schedules or behavioral tests (see schemes in the figures).
(§3) CRS was performed in accordance with the procedures of [Ding et al. (2016]) with modifications. Mice from the stress groups were restrained in well-ventilated tubes with caps and holes for breathing (in a separate room from the control groups) for 3 h/day over 3 weeks. After each restraint period, the mice were transferred to housing cages. The control mice were housed at 6 mice per cage in an enriched environment and were handled every third day.
Seven days before the tests, the control and stressed mice were singly housed. The tests were carried out as follows. Two bottles (water and 1% sucrose solution) were placed in each cage 63 h before the test. Twenty-four hours later, the bottles were switched from right to left. Fifteen hours before the tests, the animals were deprived of food, water, and sucrose. The tests lasted 2 h, and sucrose preference was calculated as a percentage of the volume of sucrose intake over the total volume of fluid intake (water and sucrose solution). The SPT was performed during the light phase.

[3] = test system: mice subjected to CRS and CRS + ZnD; test: Tail suspension test (TST) in mice subjected to CRS or CRS + ZnD; assay type: in vivo, C57BL/6J mice; details: three doses, 72 h after the last treatment
Procedure: as §1, §2, §3
The TST was performed as described in a previous work ([Pochwat et al., 2018]). Briefly, each mouse was suspended individually by the tail using adhesive tape (2 cm from the tail tip) affixed to a solid flat surface, and immobility times were measured for 6 min. […]

[4] = test system: Zn levels in the Hp and FC; test: Analysis of zinc (F-AAS) in the Hp and FC; assay type: in vivo, C57BL/6J mice; details: CRS + ZnD mice; three doses
Procedure: as §1
The samples were mineralized before the experiments. Briefly, three independent test portions of 0.5 g each were weighed from each sample and transferred to Teflon vessels. Then, 2 mL of 30% H2O2 and 6 mL of 65% HNO3 (V) were added, and the mixture was subjected to wet mineralization in a closed system in a Magnum II mineralizer (ERTEC). Mineralization was carried out for 75 min with three cycles of magnetron operation, where the first 30 min was at 60% power, next 15 min was at 80% power, and the remaining 30 min was at 100% power. The mineralized solution thus obtained was heated on a hot plate at 120 °C for 60 min to remove the excess reagents. The samples were then quantitatively transferred to 10 mL flasks and used to determine the zinc content via the F–AAS method (adsorption and emission technique). An atomic absorption spectrometer (iCE 3500, Thermo Scientific, UK) was used to measure the Zn content; each sample was analyzed independently thrice, and the obtained results are presented as mean value ± standard error of mean (SEM).

[5] = test system: treatment-resistant depression; design: method as in Serafini et al., 2014; details: ref Serafini et al., 2014; cited from earlier work
[6] = frontal cortex, frontal cortex, CRS + ZnD mice
[7] = frontal cortex, frontal cortex, CRS mice
[8] = frontal cortex, frontal cortex, Control mice
[9] = hippocampus, hippocampus, CRS + ZnD mice
[10] = hippocampus, hippocampus, CRS mice
[11] = hippocampus, hippocampus, Control mice

Question: Which “AUC0-∞” value ([1]; frontal cortex, CRS + ZnD mice) does the source give for `CNC1(c2ccccc2Cl)CCCCC1=O` (centres unmarked) [Ketamine, ketamine] here?
Answer: Its value is 65.97 µg·min/g.

Question: And the t0.5λz ([1]; frontal cortex, CRS + ZnD mice)?
Answer: The t0.5λz was 32.31 min.

Question: What about the tmax ([1]; frontal cortex, CRS + ZnD mice) of the same compound?
Answer: Its tmax is 10 min.

Question: What about the “AUC0-∞” value ([1]; frontal cortex, CRS mice) of the same compound?
Answer: Its value is 106.58 µg·min/g.

Question: What about the t0.5λz ([1]; frontal cortex, CRS mice) of the same compound?
Answer: The t0.5λz was 34.92 min.

Question: What about the tmax ([1]; frontal cortex, CRS mice) of the same compound?
Answer: Its tmax is 10 min.

Question: And the “AUC0-∞” value ([1]; frontal cortex, Control mice)?
Answer: Its value is 97.81 µg·min/g.

Question: And the t0.5λz ([1]; frontal cortex, Control mice)?
Answer: Its t0.5λz is 30.49 min.

Question: And the “AUC0-∞” value ([1]; hippocampus, CRS + ZnD mice)?
Answer: Its value is 58.49 µg·min/g.

Question: What about the t0.5λz ([1]; hippocampus, CRS + ZnD mice) of the same compound?
Answer: Its t0.5λz is 42.69 min.

Question: What about the tmax ([1]; hippocampus, CRS + ZnD mice) of the same compound?
Answer: Its tmax is 10 min.

Question: What about the “AUC0-∞” value ([1]; hippocampus, CRS mice) of the same compound?
Answer: Its value is 96.13 µg·min/g.

Question: And the t0.5λz ([1]; hippocampus, CRS mice)?
Answer: The t0.5λz was 39.68 min.

Question: What about the tmax ([1]; hippocampus, CRS mice) of the same compound?
Answer: The tmax was 10 min.

Question: And the “AUC0-∞” value ([1]; hippocampus, Control mice)?
Answer: The value was 80.90 µg·min/g.

Question: What about the t0.5λz ([1]; hippocampus, Control mice) of the same compound?
Answer: Its t0.5λz is 37.36 min.

Question: And the Kp ([1]; brain structure (not specified) / serum, CRS + ZnD animals, read-out: tissue-to-serum AUC ratio for the parent drug)?
Answer: Its Kp is 1.3.

Question: And the Kp ([1]; brain structure (not specified) / serum, CRS + ZnD animals, read-out: tissue-to-serum Cmax ratio for the parent drug)?
Answer: The Kp was 1.

Question: And the Cmax [1, 6]?
Answer: Its Cmax is 2650 ng/g.

Question: What about the MRT [1, 6] of the same compound?
Answer: The MRT was 28.8 min.

Question: And the k el [1, 6]?
Answer: Its k el is 0.000367 s⁻¹.

Question: And the Cmax [1, 7]?
Answer: The Cmax was 3030 ng/g.

Question: And the MRT [1, 7]?
Answer: The MRT was 28.4 min.

Question: And the k el [1, 7]?
Answer: Its k el is 0.000333 s⁻¹.

Question: And the Cmax [1, 8]?
Answer: The Cmax was 3460 ng/g.

Question: And the MRT [1, 8]?
Answer: Its MRT is 30.1 min.

Question: And the k el [1, 8]?
Answer: The k el was 0.000383 s⁻¹.

Question: What about the Kp ([1]; hippocampus and frontal cortex / serum, control and stress (CRS) groups, Hp and FC, read-out: tissue-to-serum Cmax and AUC ratios for the parent drug) of the same compound?
Answer: Its Kp is 2.45 to 2.84.

Question: And the Cmax [1, 9]?
Answer: The Cmax was 2310 ng/g.

Question: And the MRT [1, 9]?
Answer: Its MRT is 31.3 min.

Question: And the k el [1, 9]?
Answer: Its k el is 0.000267 s⁻¹.

Question: And the Cmax [1, 10]?
Answer: Its Cmax is 3180 ng/g.

Question: What about the MRT [1, 10] of the same compound?
Answer: The MRT was 28.5 min.

Question: And the k el [1, 10]?
Answer: The k el was 0.000283 s⁻¹.

Question: What about the Cmax [1, 11] of the same compound?
Answer: Its Cmax is 2990 ng/g.

Question: And the MRT [1, 11]?
Answer: The MRT was 30.4 min.

Question: And the k el [1, 11]?
Answer: The k el was 0.000317 s⁻¹.

Question: What about the CL/F ([1]; serum, serum, CRS + ZnD mice) of the same compound?
Answer: Its CL/F is 220 mL/min/kg.

Question: And the Cmax ([1]; serum, serum, CRS + ZnD mice)?
Answer: The Cmax was 2150 ng/mL.

Question: And the MRT ([1]; serum, serum, CRS + ZnD mice)?
Answer: Its MRT is 22 min.

Question: And the Vd/F ([1]; serum, serum, CRS + ZnD mice)?
Answer: Its Vd/F is 11.6 L/kg.

Question: What about the k el ([1]; serum, serum, CRS + ZnD mice) of the same compound?
Answer: Its k el is 0.000317 s⁻¹.

Question: And the Cmax ([1]; serum, serum, CRS mice)?
Answer: The Cmax was 1120 ng/mL.

Question: And the MRT ([1]; serum, serum, CRS mice)?
Answer: Its MRT is 29.8 min.

Question: And the Vd/F ([1]; serum, serum, CRS mice)?
Answer: Its Vd/F is 14.6 L/kg.

Question: What about the k el ([1]; serum, serum, CRS mice) of the same compound?
Answer: Its k el is 0.000317 s⁻¹.

Question: What about the Cmax ([1]; serum, serum, Control mice) of the same compound?
Answer: The Cmax was 1130 ng/mL.

Question: And the MRT ([1]; serum, serum, Control mice)?
Answer: Its MRT is 34.2 min.

Question: What about the Vd/F ([1]; serum, serum, Control mice) of the same compound?
Answer: Its Vd/F is 16 L/kg.

Question: And the k el ([1]; serum, serum, Control mice)?
Answer: The k el was 0.000317 s⁻¹.

Question: What about the CL/F ([1]; serum, CRS mice) of the same compound?
Answer: Its CL/F is 270 mL/min/kg.

Question: What about the CL/F ([1]; serum, Control mice) of the same compound?
Answer: The CL/F was 300 mL/min/kg.

Question: What about the t0.5λz ([1]; serum, CRS + ZnD mice) of the same compound?
Answer: Its t0.5λz is 35.93 min.

Question: And the tmax ([1]; serum, CRS + ZnD mice)?
Answer: The tmax was 10 min.

Question: What about the t0.5λz ([1]; serum, CRS mice) of the same compound?
Answer: The t0.5λz was 37.06 min.

Question: And the tmax ([1]; serum, CRS mice)?
Answer: The tmax was 10 min.

Question: What about the t0.5λz ([1]; serum, Control mice) of the same compound?
Answer: The t0.5λz was 36.70 min.

Question: And the “sucrose preference in the SPT” value ([2]; CRS + ZnD mice)?
Answer: The value was “failed to restore sucrose preference”.

Question: And the “sucrose preference in the SPT” value ([2]; CRS mice)?
Answer: Its value is “restored the sucrose preference”.

Question: What about the “immobility time in the TST” value [3] of the same compound?
Answer: The value was “ineffective”.

Question: What about the “Zn levels in the Hp and FC” value [4] of the same compound?
Answer: The value was “reduced the Zn levels”.

Question: What about the estimated efficacy [5] of the same compound?
Answer: The estimated efficacy was 50–70%.

From paper PMC9448861 (Frontiers in Pharmacology, 2022)
